Assay: Inhibition of GST-tagged recombinant human cytomegalovirus DNA polymerase catalytic subunit UL54 expressed in baculovirus infected insect Sf21 cells assessed as incorporation of biotin-tagged dUTP after 30 mins by LANCE TR-FRET assay
Set-up: species or system Human betaherpesvirus 5

Compound	IC50
CN(CC(=O)O)c1ccnc2c1cc(C(=O)NCc1ccc(Cl)cc1)c(=O)n2CC(=O)N1CC(C)(C)C1	50 nM
CC1(C)CN(C(=O)Cn2c(=O)c(C(=O)NCc3ccc(Cl)cc3)cc3cc(-c4nn[nH]n4)cnc32)C1	30 nM
COc1cc(N)nc2c1cc(C(=O)NCc1ccc(Cl)cc1)c(=O)n2CC(=O)N(C)CC1(CO)COC1	22 nM
